Assay results taken from the supplement of paper PMC10331698.
± gives the standard deviation of the averaged measurements.

Tests used:
Assay in all cases: level (log10 ratio to DMSO vehicle control); higher = higher biomarker level / cell amount than vehicle control
Conditions in all cases: in DMSO
[1] = compound: FC(F)(F)C(F)(F)C(F)(F)CC1CO1 [1H,1H-Heptafluorobutyl epoxide]
Procedure: (§1)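 BioMAP Diversity Plus panel of 12 human primary cell co-culture systems (3C, 4H, LPS, SAg, BT, BF4T, BE3C, CASM3C, HDF3CGF, KF3CT, MyoF, Mphg). Compounds were added 1 h before stimulation and left for 24 h (MyoF 48 h; BT 72 h for soluble read-outs or 6 d for IgG). Biomarkers were read by ELISA, cytotoxicity by SRB, PBMC viability and proliferation by Alamar Blue. Each well value was divided by the mean of 8 DMSO control wells on the same plate and log10 transformed; duplicate blinded samples were tested at 4 concentrations.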

[2] = compound: O=S(=O)(O)CCC(F)(F)C(F)(F)C(F)(F)C(F)(F)C(F)(F)C(F)(F)F [6:2 Fluorotelomer sulfonic acid]
Procedure: as §1

[3] = compound: O=S(=O)(O)C(F)(F)C(F)(F)C(F)(F)C(F)(F)C(F)(F)C(F)(F)C(F)(F)C(F)(F)C(F)(F)C(F)(F)F [Sodium perfluorodecanesulfonate]
Procedure: as §1

Octafluoroadipamide = compound: NC(=O)C(F)(F)C(F)(F)C(F)(F)C(F)(F)C(N)=O [Octafluoroadipamide]
Procedure: as §1

Hexafluoroamylene glycol = compound: OCC(F)(F)C(F)(F)C(F)(F)CO [Hexafluoroamylene glycol]
Procedure: as §1

[4] = compound: O=S(=O)(Cl)C(F)(F)C(F)(F)C(F)(F)C(F)(F)C(F)(F)C(F)(F)C(F)(F)C(F)(F)F [Perfluoro-1-octanesulfonyl chloride]
Procedure: as §1

| Test System | level (log10) ([1]; 6700 nM) | level (log10) ([1]; 20000 nM) | level (log10) ([1]; 60000 nM) | level (log10) ([2]; 6700 nM) | level (log10) ([2]; 20000 nM) | level (log10) ([2]; 60000 nM) | level (log10) ([3]; 1500 nM) | level (log10) ([3]; 4400 nM) | level (log10) ([3]; 13000 nM) | level (log10) ([3]; 40000 nM) | level (log10) (Octafluoroadipamide; 6700 nM) | level (log10) (Octafluoroadipamide; 20000 nM) | level (log10) (Octafluoroadipamide; 60000 nM) | level (log10) (Hexafluoroamylene glycol; 6700 nM) | level (log10) (Hexafluoroamylene glycol; 20000 nM) | level (log10) (Hexafluoroamylene glycol; 60000 nM) | level (log10) ([4]; 6700 nM) | level (log10) ([4]; 20000 nM) | level (log10) ([4]; 60000 nM) |
| --- | --- | --- | --- | --- | --- | --- | --- | --- | --- | --- | --- | --- | --- | --- | --- | --- | --- | --- | --- |
| lMphg:CCL2/MCP-1 | -0.0075 ± 0.011 | -0.021 ± 0.021 | 0.0105 ± 0.026 | -0.0195 ± 0.012 | -0.005 ± 0.0099 | 0.027 ± 0.025 | 0.022 ± 0.0028 | -0.0035 ± 0.013 | 0.0135 ± 0.005 | 0.0225 ± 0.026 | 0.0185 ± 0.016 | 0.0035 ± 0.0021 | 0.005 ± 0.025 | -0.001 ± 0.03 | -0.0115 ± 0.0064 | -0.007 ± 0.023 | 0.0175 ± 0.0092 | 0.0255 ± 0.0092 | 0.032 ± 0.0028 |
| lMphg:CCL3/MIP-1alpha | -0.039 ± 0.0057 | -0.0135 ± 0.019 | 0.0135 ± 0.015 | 0.014 ± 0.021 | 0.072 ± 0.02 | 0.0565 ± 0.039 | -0.008 ± 0.025 | 0.0015 ± 0.012 | 0.0195 ± 0.047 | 0.0425 ± 0.0035 | 0.0425 ± 0.032 | 0.019 ± 0.047 | 0.0295 ± 0.013 | 0.03 ± 0.072 | -0.0125 ± 0.023 | 0.023 ± 0.034 | 0.038 ± 0.03 | 0.004 ± 0.041 | 0.025 ± 0.018 |
| lMphg:CD40 | -0.005 ± 0.025 | -0.001 ± 0.016 | 0.0045 ± 0.0021 | -0.017 ± 0.011 | -0.022 ± 0.028 | -0.05 ± 0.033 | -0.0305 ± 0.0078 | -0.0285 ± 0.016 | -0.0455 ± 0.012 | -0.104 ± 0.018 | -0.0055 ± 0.0021 | -0.0125 ± 0.0035 | 0.0155 ± 0.00071 | -0.0175 ± 0.0021 | -0.002 ± 0.0028 | -0.0285 ± 0.039 | -0.0165 ± 0.019 | -0.01 | -0.0065 ± 0.0035 |
| lMphg:CD62E/E-Selectin | -0.001 ± 0.059 | -0.005 ± 0.035 | 0.0525 ± 0.025 | -0.0225 ± 0.018 | -0.039 ± 0.0071 | 0 ± 0.023 | -0.011 ± 0.0014 | -0.0265 ± 0.028 | 0.0135 ± 0.018 | 0.0205 ± 0.021 | 0.0095 ± 0.00071 | 0.002 ± 0.0042 | 0.007 ± 0.016 | 0.002 ± 0.0057 | -0.0215 ± 0.0092 | 0.0055 ± 0.025 | -0.0085 ± 0.0035 | -0.0165 ± 0.037 | 0.073 ± 0.014 |
| lMphg:CD69 | -0.0285 ± 0.0064 | 0.005 ± 0.041 | 0.045 ± 0.081 | -0.034 ± 0.04 | -0.065 ± 0.054 | -0.073 ± 0.025 | -0.001 ± 0.014 | -0.022 ± 0.052 | -0.0095 ± 0.032 | -0.084 ± 0.011 | -0.0425 ± 0.052 | -0.027 ± 0.042 | 0.0275 ± 0.063 | -0.046 ± 0.027 | -0.0425 ± 0.025 | -0.027 ± 0.0071 | -0.054 ± 0.0099 | -0.0855 ± 0.033 | -0.111 ± 0.09 |
| lMphg:CD106/VCAM-1 | 0.003 ± 0.011 | 0.012 ± 0.016 | 0.0095 ± 0.011 | -0.007 ± 0.011 | -0.0125 ± 0.0092 | -0.022 ± 0.0071 | -0.0065 ± 0.012 | -0.0215 ± 0.018 | -0.021 ± 0.0071 | -0.0515 ± 0.0078 | 0.014 ± 0.013 | 0.019 ± 0.0085 | 0.0125 ± 0.0021 | -0.0185 ± 0.012 | -0.014 ± 0.0057 | -0.0175 ± 0.0092 | 0.008 ± 0.0057 | 0.0135 ± 0.0078 | 0.0255 ± 0.00071 |
| lMphg:CXCL8/IL-8 | -0.0265 ± 0.015 | -0.019 ± 0.021 | -0.0105 ± 0.029 | -0.0115 ± 0.005 | 0.022 ± 0.014 | 0.0725 ± 0.0092 | 0.0185 ± 0.032 | 0.0015 ± 0.005 | 0.042 ± 0.0071 | 0.131 ± 0.013 | 0.003 ± 0.054 | -0.0095 ± 0.069 | 0.0455 ± 0.026 | 0.014 ± 0.021 | -0.0215 ± 0.016 | 0.0185 ± 0.06 | -0.002 ± 0.017 | 0.0335 ± 0.00071 | 0.115 ± 0.061 |
| lMphg:IL-1alpha | -0.012 ± 0.0071 | -0.025 ± 0.0071 | -0.002 ± 0.028 | 0.0395 ± 0.05 | 0.0235 ± 0.035 | 0.0215 ± 0.039 | 0.0345 ± 0.021 | -0.002 ± 0.028 | 0.032 ± 0.013 | 0.0505 ± 0.03 | -0.0135 ± 0.016 | -0.044 ± 0.016 | -0.014 ± 0.065 | 0.005 ± 0.02 | 0.015 ± 0.027 | 0.029 ± 0.061 | -0.0225 ± 0.033 | -0.005 ± 0.042 | 0.021 ± 0.088 |
| lMphg:SRB-Mphg | 0.012 ± 0.0085 | -0.0005 ± 0.021 | -0.0085 ± 0.005 | 0.0065 ± 0.0064 | 0.0135 ± 0.0078 | 0.0025 ± 0.036 | -0.067 ± 0.12 | -0.0945 ± 0.083 | -0.119 ± 0.053 | -0.057 ± 0.13 | -0.02 ± 0.027 | -0.0265 ± 0.018 | 0.003 ± 0.018 | 0.0005 ± 0.0092 | 0.0035 ± 0.015 | 0.007 ± 0.013 | 0.0025 ± 0.013 | 0.004 ± 0.016 | -0.0185 ± 0.025 |
| lMphg:sIL-10 | -0.0515 ± 0.022 | -0.047 ± 0.031 | -0.01 ± 0.011 | -0.025 ± 0.037 | -0.015 ± 0.02 | -0.049 ± 0.0057 | -0.0235 ± 0.00071 | -0.122 ± 0.019 | -0.0595 ± 0.00071 | -0.269 ± 0.06 | -0.0295 ± 0.021 | -0.012 ± 0.11 | -0.1 ± 0.017 | -0.0035 ± 0.0092 | -0.0155 ± 0.016 | -0.0135 ± 0.0021 | 0.0345 ± 0.054 | -0.071 ± 0.1 | -0.341 ± 0.033 |
